Reference: PubChem BioAssay AID330 (DTP/NCI, 2004)
Where “and” joins values, the source holds several entries; their conditions need not be identical. Equal values may be shown once. Inconclusive results and toxic doses are left out. How the source made its calls: active means survival T/C of 150% or more; inactive means T/C below 125% in these data.

Tested on: P388 leukemia ip, CD2F1 mice, survival T/C
Assay: NCI In Vivo Anticancer Drug Screen. Data for tumor model P388 Leukemia (intraperitoneal) in CD2F1 (CDF1) mice
Settings: endpoint: median survival time, higher = longer survival
Outline: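 Mice carrying the transplanted tumor received test compound or vehicle. Survival was recorded in each group, and the value is the treated-group measurement divided by that of the vehicle-treated control group.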

[1] = dose: 50.0 mg/kg/injection, schedule: Q01DX005 (ip), vehicle: saline with Tween-80
[2] = dose: 100.0 mg/kg/injection, schedule: Q01DX005 (ip), vehicle: saline with Tween-80
[3] = dose: 200.0 mg/kg/injection, schedule: Q01DX005 (ip), vehicle: saline with Tween-80
[4] = dose: 60.0 mg/kg/injection, schedule: Q01DX005 (ip), vehicle: Klucel (hydroxypropylcellulose) (HPC)
[5] = dose: 120.0 mg/kg/injection, schedule: Q01DX005 (ip), vehicle: Klucel (hydroxypropylcellulose) (HPC)
[6] = dose: 240.0 mg/kg/injection, schedule: Q01DX005 (ip), vehicle: Klucel (hydroxypropylcellulose) (HPC)
[7] = dose: 50.0 mg/kg/injection, schedule: Q01DX005 (ip), vehicle: Klucel (hydroxypropylcellulose) (HPC)
[8] = dose: 100.0 mg/kg/injection, schedule: Q01DX005 (ip), vehicle: Klucel (hydroxypropylcellulose) (HPC)
[9] = dose: 200.0 mg/kg/injection, schedule: Q01DX005 (ip), vehicle: Klucel (hydroxypropylcellulose) (HPC)
[10] = dose: 25.0 mg/kg/injection, schedule: Q01DX005 (ip), vehicle: saline with Tween-80
[11] = dose: 50.0 mg/kg/injection, schedule: Q01DX009 (ip), vehicle: saline with Tween-80
[12] = dose: 100.0 mg/kg/injection, schedule: Q01DX009 (ip), vehicle: saline with Tween-80
[13] = dose: 200.0 mg/kg/injection, schedule: Q01DX009 (ip), vehicle: saline with Tween-80
[14] = dose: 400.0 mg/kg/injection, schedule: Q01DX009 (ip), vehicle: saline with Tween-80
[15] = dose: 100.0 mg/kg/injection, schedule: Q01DX001 (ip), vehicle: Klucel (hydroxypropylcellulose) (HPC)
[16] = dose: 200.0 mg/kg/injection, schedule: Q01DX001 (ip), vehicle: Klucel (hydroxypropylcellulose) (HPC)
[17] = dose: 400.0 mg/kg/injection, schedule: Q01DX001 (ip), vehicle: Klucel (hydroxypropylcellulose) (HPC)
[18] = dose: 50.0 mg/kg/injection, schedule: Q01DX009 (ip), vehicle: Klucel (hydroxypropylcellulose) (HPC)
[19] = dose: 100.0 mg/kg/injection, schedule: Q01DX009 (ip), vehicle: Klucel (hydroxypropylcellulose) (HPC)

Measured: T/C

COc1ccc(S(=O)(=O)N/N=C\c2cc([N+](=O)[O-])cc([N+](=O)[O-])c2O)c(OC)c1OC
inactive: [1] 102 % of control | [2] 107 % of control | [3] 99 % of control

S=P(Oc1ccccc1)(N1CCCCN1)N1CCCCN1
inactive: [4] 97 % of control | [5] 107 % of control | [6] 100 % of control

O=C(CC(=O)N1CCN=C1Nc1c(Cl)cccc1Cl)c1ccc(Cl)cc1
inactive: dose: 6.25 mg/kg/injection, schedule: Q01DX009 (ip), vehicle: Klucel (hydroxypropylcellulose) (HPC) 109 % of control | dose: 12.5 mg/kg/injection, schedule: Q01DX009 (ip), vehicle: Klucel (hydroxypropylcellulose) (HPC) 105 % of control | dose: 25.0 mg/kg/injection, schedule: Q01DX009 (ip), vehicle: Klucel (hydroxypropylcellulose) (HPC) 96 % of control

CCOP(=O)(Nc1ccc2c(c1)Cc1c-2cc(Cl)c(NC(C)=O)c1Cl)OCC
inactive: [7] 95 % of control | [8] 97 % of control | [9] 97 % of control

C=CC1(O)Cc2cc(C(C)C)c(OC)c(OC)c21 (stereo not given)
inactive: [1] 106 % of control | [2] 119 % of control | [3] 109 % of control

CC(=O)Oc1cc2c(cc1C(NC(N)=O)c1ccc3c(c1)OCO3)OCO2 (stereo not given)
inactive: [4] 100 % of control | [5] 93 % of control | [6] 92 % of control

C=CCOc1c(C=O)cccc1OC
inactive: [10] 101 % of control | [1] 100 % of control | [2] 108 % of control

CNC(=O)c1ccccc1O
inactive: [11] 103 % of control | [12] 103 % of control | [13] 95 % of control | [14] 90 % of control

CCCCCCCCCCCCCCCCCC(=O)O.[Co]
inactive: [11] 87 % of control and 95 % of control and 97 % of control | [12] 100 % of control and 103 % of control and 97 % of control | [13] 92 % of control

O=[N+]([O-])c1ccc2[nH]ncc2c1
inactive: [11] 100 % of control | [12] 100 % of control | [13] 110 % of control

COc1ccc(C(Cl)c2ccc(OC)c(OC)c2)cc1OC
inactive: dose: 25.0 mg/kg/injection, schedule: Q01DX009 (ip), vehicle: other 100 % of control | dose: 50.0 mg/kg/injection, schedule: Q01DX009 (ip), vehicle: other 90 % of control | dose: 100.0 mg/kg/injection, schedule: Q01DX009 (ip), vehicle: other 97 % of control

COc1ccccc1NC(=O)C1=C(C)NC(C)=C(C(=O)Nc2ccccc2C)C1c1ccccc1 (stereo not given)
inactive: dose: 60.0 mg/kg/injection, schedule: Q01DX005 (ip), vehicle: saline with Tween-80 100 % of control | dose: 120.0 mg/kg/injection, schedule: Q01DX005 (ip), vehicle: saline with Tween-80 104 % of control | dose: 240.0 mg/kg/injection, schedule: Q01DX005 (ip), vehicle: saline with Tween-80 89 % of control

COc1ccc(C2c3cc4c(cc3OC(C)(OC)C2C)OCO4)cc1 (stereo not given)
inactive: dose: 6.25 mg/kg/injection, schedule: Q01DX005 (ip), vehicle: Klucel (hydroxypropylcellulose) (HPC) 95 % of control | dose: 12.5 mg/kg/injection, schedule: Q01DX005 (ip), vehicle: Klucel (hydroxypropylcellulose) (HPC) 87 % of control | dose: 25.0 mg/kg/injection, schedule: Q01DX005 (ip), vehicle: Klucel (hydroxypropylcellulose) (HPC) 87 % of control

CCOC(=O)C1CSC(c2c(COP(=O)(O)O)cnc(C)c2O)N1 (stereo not given)
inactive: [1] 96 % of control | [2] 100 % of control | [3] 94 % of control

Nc1cc(N)cc(C(=O)c2ccccc2)c1
inactive: [12] 95 % of control | [13] 95 % of control | [14] 90 % of control

CC(C)(C)OC(=O)NC(Cc1c[nH]c2ccccc12)C(=O)O (stereo not given)
inactive: [7] 102 % of control | [8] 101 % of control | [9] 101 % of control

CC1(O)C2C3C(I)C4C5C3C1C5C42 (stereo not given)
inactive: [15] 92 % of control | [16] 88 % of control | [17] 87 % of control

COC(=O)C1=C(C)NC(C)=C(C(=O)OC)C1c1cc2ccccc2nc1Cl
inactive: [1] 92 % of control | [2] 88 % of control | [3] 92 % of control

Cc1cc(C)c(CSc2cc(N)nc(N)c2N)c(C)c1
inactive: [18] 104 % of control | [19] 107 % of control

CC1=NN(c2ccc(S(=O)(=O)O)cc2)C(=O)/C1=C/c1ccc(Cl)cc1
inactive: dose: 50.0 mg/kg/injection, schedule: Q04DX003 (ip), vehicle: saline sonified 100 % of control | dose: 100.0 mg/kg/injection, schedule: Q04DX003 (ip), vehicle: saline sonified 100 % of control | dose: 200.0 mg/kg/injection, schedule: Q04DX003 (ip), vehicle: saline sonified 95 % of control

N=c1c2ncn(C3OC(CO)C(O)C3O)c2ncn1N (stereo not given)
inactive: dose: 25.0 mg/kg/injection, schedule: Q01DX005 (ip), vehicle: water 110 % of control | dose: 50.0 mg/kg/injection, schedule: Q01DX005 (ip), vehicle: water 107 % of control | dose: 100.0 mg/kg/injection, schedule: Q01DX005 (ip), vehicle: water 105 % of control | dose: 200.0 mg/kg/injection, schedule: Q01DX005 (ip), vehicle: water 98 % of control | dose: 400.0 mg/kg/injection, schedule: Q01DX005 (ip), vehicle: water 108 % of control

CCCCCCCCCCCCOC(=O)C(N)Cc1ccc(O)cc1 (stereo not given)
inactive: [18] 98 % of control | [19] 102 % of control | dose: 200.0 mg/kg/injection, schedule: Q01DX009 (ip), vehicle: Klucel (hydroxypropylcellulose) (HPC) 97 % of control

C[C@]12CC[C@@H]3c4ccc(O)c(N)c4CC[C@H]3[C@@H]1CC[C@@H]2O
inactive: dose: 12.5 mg/kg/injection, schedule: Q01DX005 (ip), vehicle: saline with Tween-80 93 % of control | [10] 88 % of control | [1] 94 % of control | [2] 90 % of control | [3] 90 % of control

CCn1c(Cl)c(/C=C(/NC(=O)c2ccccc2)C(=O)O)c2ccccc21
inactive: [15] 100 % of control | [16] 94 % of control | [17] 94 % of control

C[As](C)SC1CCC2(C)C(=CCC3C4CCC(=O)C4(C)CCC32)C1 (stereo not given)
inactive: dose: 12.5 mg/kg/injection, schedule: Q01DX009 (ip), vehicle: distilled water + Tween-80 92 % of control | dose: 25.0 mg/kg/injection, schedule: Q01DX009 (ip), vehicle: distilled water + Tween-80 89 % of control and 96 % of control | dose: 50.0 mg/kg/injection, schedule: Q01DX009 (ip), vehicle: distilled water + Tween-80 107 % of control and 97 % of control | dose: 100.0 mg/kg/injection, schedule: Q01DX009 (ip), vehicle: distilled water + Tween-80 119 % of control and 121 % of control | dose: 200.0 mg/kg/injection, schedule: Q01DX009 (ip), vehicle: distilled water + Tween-80 107 % of control and 90 % of control

C[Si](C)(C)N1CCCC1
inactive: dose: 25.0 mg/kg/injection, schedule: Q01DX009 (ip), vehicle: saline 105 % of control | dose: 50.0 mg/kg/injection, schedule: Q01DX009 (ip), vehicle: saline 89 % of control | dose: 100.0 mg/kg/injection, schedule: Q01DX009 (ip), vehicle: saline 90 % of control | dose: 200.0 mg/kg/injection, schedule: Q01DX009 (ip), vehicle: saline 107 % of control
